Source: article PMC11329928, “Design, synthesis and structure-activity relationship (SAR) studies of an unusual class of non-cationic fatty amine-tripeptide conjugates as novel synthetic antimicrobial agents” (Frontiers in Pharmacology, 2024)
“And” between values parts separate entries of the source, which are not always exact repeats. Equal values may be shown once. Where a name gives a salt, the structure may show the parent alone.

Tests used:
S. pyogenes T = assay: Dose dependence of bacterial viability (CFU counting, Hill fit); type: cell-based, Streptococcus pyogenes; details: for EC50 / Δlogmax, S. pyogenes T / SC (stationary concentration, Δlog = 0), S. pyogenes T: 2 h treatment, Hill fit; for EC50 / Δlogmax, S. pyogenes T / Decrease of the number of viable bacteria in the inoculum within 2 h: BHI; for EC50 / Δlogmax, S. pyogenes T / Decrease of the number of viable bacteria in the inoculum within 2 h / SC (stationary concentration, Δlog = 0), S. pyogenes T: 37°C; for EC50: read-out: K 1/2 (concentration yielding half-variation in Δlogmax), S. pyogenes T (converted); for Δlogmax, S. pyogenes T: maximum variation in viability; for Decrease of the number of viable bacteria in the inoculum within 2 h: S. pyogenes T; for Reduction of bacterial viability at 3 × SC, S. pyogenes T: after 2 h of incubation at 3 × SC; for SC (stationary concentration, Δlog = 0), S. pyogenes T: BHI medium, added at T1, 10^7–10^8 CFU/mL, CFU vs untreated controls
From the text: First, the substitution of the fatty amino chain of 18 carbon atoms of the reference compound DICAM 2 by either an OMe group (methylated tripeptide DICAM 5) or an amine with 12 carbon atoms (DICAM 9) abolished the activity against all three pathogens. However, the activity remained intact when the chain of the fatty amine of prototypes DICAMs 1 and 4 was two carbon atoms shorter (DICAM 10 and DICAM 12, respectively), based on S. pneumoniae and S. pyogenes results. […] Third, Glu and Ala were tolerated as C-terminal residues of the lipotripeptides. […] In addition, deletion of the C-terminal Glu (DICAM 13) eradicated the activity against S. pneumoniae and S. aureus. However, a delay and small inhibition of S. pyogenes ^T growth was still observed. Fourth, Glu (DICAMs 19 and 20) and Orn (DICAMs 21 and 22) were tolerated as N-terminal residues, with the impact of these modifications being pathogen-dependent. […] SAR studies continued by measuring the dose dependence of DICAM’s activity at T1 with all the compounds found to be active against S. pyogenes or S. aureus in the initial screening, and all but one compound in the case of S. pneumoniae. The OD values of bacterial cultures were monitored after DICAM addition, and the decrease in the number of viable bacteria was measured relative to controls (Figures 4–6; Supplementary Figure S1). As antibacterial efficacy may decline with the bacterium dose in the inoculum ([Belley et al., 2009]; [Udekwu et al., 2009]; [Luca et al., 2013]), the assays were performed using the bacterial concentrations necessary for the fluorescence experiments in Section 2.3 (10^7–10^8 CFU/mL). At these high bacterial densities, MICs were determined as the DICAM concentration at which bacteria neither grow nor are killed (the stationary concentration (SC)), following [Udekwu et al., 2009]. By fitting the logarithmic plot of cell viability decrease vs. the DICAM dose to a Hill function (see Section 5.2.3.1) we were able to determine the maximum variation in viability (Δlogmax = ∆log f - ∆log 0, where ∆log f and ∆log 0 are the upper and lower limits of Δlog) in the assay conditions, the SC concentration (Δlog = 0), the dose required for half-variation in Δlogmax (K 1/2), and the cooperativity of the antimicrobial effect (N H).
Susceptibility to DICAMs was first tested by growth-inhibition assays at 50 and 100 μM of compound. Briefly, working solutions at 5 mM or 10 mM DICAM in pure DMSO were prepared from DICAM stocks (40 mM in pure DMSO) and diluted with fresh culture medium to 5× the desired final concentration. Aliquots (50 µL) of these solutions were added to 200 µL of bacterium cultures grown to early exponential phase (OD550/600 c. a. 0.15–0.2 in sterile 96-well plates (Cultek, Spain). Incubation continued for 10 h at 37°C and turbidity (OD550/600) values were measured every 20 min to monitor growth and lysis, using a VersaMax microplate reader (Molecular Devices; United Kingdom). Next, the activity dependence on DICAM’s dose was examined by measuring the turbidity of treated and untreated cultures as a function of time. Also, the decay of bacterial viability (CFU/mL) at selected times of treatment was assessed by colony counting on LB-agar or TSA plates after overnight incubation at 37°C. By default, 10 μL of 10-fold serially diluted samples were plated, which set the lower detection limit at 10^2 CFU/mL (10^1 CFU/mL when 100 μL of the undiluted sample was seeded).
As antibacterial efficacy may decline with the bacterium dose in the inoculum ([Belley et al., 2009]; [Udekwu et al., 2009]; [Luca et al., 2013]), activity assays were performed using the bacterial concentrations required for the fluorescence experiments in Section 2.3 (10^7–10^8 CFU/mL). At such bacterial densities, MICs were determined as the DICAM concentration at which bacteria neither grow nor are killed under assay conditions (the stationary concentration (SC)), as indicated in Section 2.2. […]

[1] = RP-HPLC retention time used to determine hydrophobicity; type: physicochemical; details: analytical RP-HPLC, C18 Sunfire column (4.6 mm × 150 mm, 3.5 μm); A = 0.05% TFA in water, B = acetonitrile; 10% to 100% B in 20 min then isocratic 100% B 10 min; 217 and 254 nm; used as measure of hydrophobicity
Description: The purity of the lipopeptides was checked by analytical RP-HPLC on an Agilent Infinity instrument equipped with a Diode Array and a C18 Sunfire column (4.6 mm × 150 mm, 3.5 μm). As mobile phase A:B mixtures were used, where A = 0.05% TFA in water and B = acetonitrile. The samples were analyzed at 217 and 254 nm in a gradient from 10% of B to 100% of B in 20 min followed by isocratic 100% of B in 10 min.
Retention times were used to determine the hydrophobicity ([Neubauer et al., 2020]). HRMS (EI+) was carried out in an Agilent 6,520 Accurate-Mass Q-TOF LC/MS spectrometer using water/acetonitrile mixtures. Results can be found in Supplementary Section S3, S4.

[2] = test system: Pseudomonas aeruginosa PAO1; assay: Growth inhibition screening of planktonic cultures (OD550/600); type: cell-based; set-up: key: (+++) full inhibition; (++) partial inhibition; (+) growth retardation; -: (−) no effect; details: P. aeruginosa PAO1, 50 and 100 μM compound added at T1, OD550/600 followed 10 h, 37°C
Procedure, shortened: (§1)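 Early exponential-phase cultures (OD550/600 c. a. 0.15–0.2) were treated with DICAMs at 50 and 100 μM final, diluted from DMSO stocks into medium, and incubated 10 h at 37°C. Turbidity (OD550/600) was read every 20 min against untreated controls to track growth inhibition and lysis.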

Escherichia coli DH10B = assay: as above; type: cell-based; set-up: key: (+++) full inhibition; (++) partial inhibition; (+) growth retardation; -: (−) no effect; details: E. coli DH10B, 50 and 100 μM compound added at T1, OD550/600 followed 10 h, 37°C
Procedure, shortened: as §1

Staphylococcus aureus T = assay: as above; type: cell-based; set-up: key: (+++) full inhibition; (++) partial inhibition; (+) growth retardation; -: (−) no effect; details: S. aureus T, 50 and 100 μM compound added at T1, OD550/600 followed 10 h, 37°C
Procedure, shortened: as §1

Compound	EC50 (S. pyogenes T)	Δlogmax, S. pyogenes T (S. pyogenes T)	Retention time [1]	Growth halt or lysis (50/100 μM), Pa [2]	Decrease of the number of viable bacteria in the inoculum within 2 h (S. pyogenes T)	Reduction of bacterial viability at 3 × SC, S. pyogenes T (S. pyogenes T)	Growth halt or lysis (50/100 μM), Ec (Escherichia coli DH10B)	Growth halt or lysis (50/100 μM), Sa T (Staphylococcus aureus T)	SC (stationary concentration, Δlog = 0), S. pyogenes T (S. pyogenes T)
CCCCCCCCCCCCCCCCCCNC(=O)[C@H](CCC(=O)O)NC(=O)[C@H]1CCCN1C(=O)[C@H](CC(N)=O)NC(=O)OCc1ccccc1 [DICAM 1, Cbz-Asn- Pro -Glu-NH-C18H37]	8.3 ± 0.9 µM	2.5 ± 0.1 logarithmic units	21.41 min	-					
CCCCCCCCCCCCCCCCCCNC(=O)[C@H](CCC(=O)O)NC(=O)[C@H]1CCCN1C(=O)[C@@H](N)CC(N)=O [DICAM 2, Asn- Pro -Glu-NH-C18H37 ·HCl]	14 ± 2 µM	3.9 ± 0.4 logarithmic units	12.14 min	-	99.9–99.99%	94.5%–99.9	-	++	
CCCCCCCCCCCCCCCCCCNC(=O)[C@H](CCC(=O)O)NC(=O)[C@H]1CCCN1C(=O)[C@H](C)NC(=O)OCc1ccccc1 [DICAM 3, Cbz-Ala- Pro -Glu-NH-C18H37]	8.1 ± 0.4 µM	5.4 ± 0.1 logarithmic units	21.42 min	-	99.9–99.99%	94.5%–99.9	-	-	3–5 µM and 3.0 ± 0.4 µM
CCCCCCCCCCCCCCCCCCNC(=O)[C@H](CCC(=O)O)NC(=O)[C@H]1CCCN1C(=O)[C@H](C)N [DICAM 4, Ala- Pro -Glu-NH-C18H37 ·HCl]	51 ± 10 µM	6.8 ± 0.8 logarithmic units	19.24 min	-			-	++	10 ± 4 µM
CCCCCCCCCCCCCCCCNC(=O)[C@H](CCC(=O)O)NC(=O)[C@H]1CCCN1C(=O)[C@H](CC(N)=O)NC(=O)OCc1ccccc1 [DICAM 10, Cbz-Asn- Pro -Glu-NH-C16H33]	6.8 ± 0.7 µM	2.6 ± 0.1 logarithmic units	18.23 min	-					
CCCCCCCCCCCCCCCCCCNC(=O)[C@H](C)NC(=O)[C@H]1CCCN1C(=O)[C@H](C)N [DICAM 14, Ala- Pro -Ala-NH-C18H37 · HCl]	41 ± 10 µM	3.7 ± 0.8 logarithmic units	19.50 min	-			-	+++	22 ± 10 µM
CCCCCCCCCCCCCCCCCCNC(=O)[C@H](CCC(=O)O)NC(=O)[C@H]1CCCN1C(=O)[C@H](CCC(=O)O)NC(=O)OCc1ccccc1 [DICAM 19, Cbz-Glu- Pro -Glu-NH-C18H37]	7.1 ± 0.8 µM	3.0 ± 0.2 logarithmic units	21.22 min	-		94.5%–99.9	-	+	4−5 µM and 3.8 ± 0.9 µM
CCCCCCCCCCCCCCCCCCNC(=O)[C@H](CCC(=O)O)NC(=O)[C@H]1CCCN1C(=O)[C@@H](N)CCC(=O)O [DICAM 20, Glu- Pro -Glu-NH-C18H37 · HCl]	17 ± 4 µM	∼3.0 logarithmic units	18.71 min	-			-	++	8 ± 2 µM
CCCCCCCCCCCCCCCCCCNC(=O)[C@H](CCC(=O)O)NC(=O)[C@H]1CCCN1C(=O)[C@H](CCCN)NC(=O)OCc1ccccc1 [DICAM 21, Cbz-Orn- Pro -Glu-NH-C18H37]	38 ± 40 µM	4 ± 2 logarithmic units	19.70 min	-			-	+	∼10 µM
CCCCCCCCCCCCCCCCCCNC(=O)[C@H](CCC(=O)O)NC(=O)[C@H]1CCCN1C(=O)[C@@H](N)CCCN [DICAM 22, Orn- Pro -Glu-NH-C18H37 · HCl]			16.91 min	-			-	+	
CCCCCCCCCCCCCCCCCCNC(=O)[C@H](CCC(=O)O)NC(=O)[C@H]1CCCN1C(=O)[C@H](C)NC(C)=O [DICAM 24, Ac-Ala- Pro -Glu-NH-C18H37]	7.2 ± 0.4 µM	5.3 ± 0.1 logarithmic units	21.23 min		99.9–99.99%	94.5%–99.9	-	++	
Ala - Pro -Glu-NH-C18H37 · HCl [DICAM 23]			19.31 min	-			-	++	
